Key:
[1] = Phase 1 oral bioavailability study of Rigosertib soft gelatin capsule in MDS patients, fasted and fed, vs IV; type: in vivo, human; settings: for AUC / Cmax / Tmax / half-life / bioavailability: human, plasma, MDS patients
Method: A Phase 1 study was conducted to assess oral bioavailability of a novel oral ON 01910.Na (Rigosertib) soft gelatin capsule formulation of Example 1 in MDS patients under fasted and fed conditions. This was a single-dose, three-treatment, three-period sequential design for studying the effects of food on the bioavailability of an immediate-release soft gelatin capsule formulation. The following dosing groups were tested in 12 patients: IV Dose 800 mg over 24 hours and oral dose 560 mg (2×280 mg capsules) under fasting and fed conditions. Plasma samples were collected pre-dose, over 32 hours (IV dose) or 8 hours (oral dose) after dose initiation. Rigosertib plasma levels were analyzed by a validated LC/MS/MS method. Pharmacokinetic parameters were estimated by non-compartmental analysis (WinNonlin®).

[2] = tested on: human GM-CSF-dependent erythroblastic TF-1 cell line; test: In vitro effect of ON 01910.Na on cell cycle readouts in TF-1 cells by SCNP; type: cell-based; settings: 24 hours
Method: FIG. 2: In vitro effect of ON 01910.Na at clinically relevant concentrations on intracellular pathways in human GM-CSF-dependent erythroblastic TF-1 cell line using SCNP was evaluated in order to monitor transitional changes in the cell cycle, with a focus on the G2-M phase and to perform dose-dependent titrations of drug using these cell cycle readouts. The reagents chosen to measure cell cycle readouts were fluorochrome-conjugated antibodies that recognize cyclin B1, p-histone H3(S28) and p-Cdk1(Y15) and 4′6′-diamino-2-phenylindole (DAPI). […] TF-1 cell DNA content measured by DAPI verified this to be the case as increases in G2/M and sub-G1 (a measure of apoptotic cell death) were simultaneously observed. […] These effects were also observed at 48 hours, although with more cell death. This assay was used to measure the pharmacodynamics activity of the drug in MDS patient samples pre- and post-treatment with ON 01910.Na.

[3] = Phase I/II trials of intravenous Rigosertib in MDS patients: bone marrow blast response and overall survival
Method: According to one embodiment, Rigosertib was given as an intravenous infusion to MDS patients. In one trial, patients received 800 mg Rigosertib for three to five days every other week. According to another embodiment, patients received 650 to 1,700 mg Rigosertib for three to six days every other week. According to yet another embodiment, patients were initially treated with 800 mg to 1,500 mg Rigosertib for two days every week for three weeks followed by one week without treatment. The treatment schedule in these studies was later changed to 1,800 mg Rigosertib for three days every other week.
In this Example, bone marrow (BM) response and overall survival (OS) were analyzed in 60 patients (pts) with MDS, including 51 patients with refractory anemia and excess blasts (RAEB) and 9 patients with refractory cytopenia and multilineage dysplasia (RCMD) enrolled in 4 independent Phase 1/II clinical trials.
The patients were treated with Rigosertib administered as a continuous intravenous infusion (CIV) from 2 to 6 days weekly or every other week with BM response initially assessed per protocol by week 4 or 8 and every 8 weeks thereafter. Overall survival (OS) analyses were performed by the method of Kaplan-Meier.

[4] = Phase I/II study of Rigosertib continuous IV infusion in relapsed or refractory AML or transformed MPN; settings: for concentration at 6 h: human, in vivo, 2400 mg/day, average plasma levels, 2400 mg/day CIV
Method: (§1) Methods: The patients were >18 years of age with relapsed or refractory AML or transformed myeloproliferative neoplasms (MPN). Patients were given Rigosertib by continuous IV infusions over 24 hours with a fixed dose of 2400 mg/day either for 72 hrs or 120 hrs every other week using a standard dose escalation scheme. A blood sample was withdrawn at 6 hrs after the start of infusion during cycle 1 and cycle 2 to assess the plasma concentration of Rigosertib. The study was subsequently amended and, after 2 cycles of IV Rigosertib (each cycle being 2 weeks) patients received Rigosertib orally, 560 mg twice a day continuously for 20 weeks. The objectives of Phase I study were to define maximum tolerated dose (MTD), dose limiting toxicities (DLT), and identify all toxicities and anti-leukemia activity. Phase II primary objective was to determine the clinical efficacy; secondary objectives were to assess time to response or progression, duration of response and overall survival at 6 months.
as §1, with “Patients with” for “Methods: The patients were >18 years of age with”, “neoplasms (MPN)” for “neoplasms (MPN). Patients”, “hours (hrs)” for “hours”, “of phase 1” for “of Phase I”, “(DLT),” for “(DLT), and”, “Phase 2” for “Phase II”

[5] = iv, 800 mg, 800 mg IV (24 hr infusion)
[6] = po, 560 mg, 560 mg Oral (Fasting)
[7] = 39 RAEB-1, 2, t-pts refractory or relapsing after azacitidine/decitabine
[8] = higher risk MDS patients who had previously failed Vidaza or Dacogen

Q: Which results are given for `COc1cc(OC)c(/C=C/S(=O)(=O)Cc2ccc(OC)c(NCC(=O)[O-])c2)c(OC)c1.[Na+]` [Rigosertib, sodium (E)-2-{2-methoxy-5-[(2′,4′,6′-trimethoxystyrylsulfonyl)methyl]phenylamino}acetate]?
A: decrease of AUC after a meal as compared to fasting conditions ([1]; 560 mg oral, fed vs fasting): 61%; decrease of Cmax after a meal as compared to fasting conditions ([1]; 560 mg oral, fed vs fasting): 77%; AUC [1, 5]: 52700 ± 19200 ng·h/mL; Cmax [1, 5]: 3140 ± 1130 ng/mL; Tmax [1, 5]: 2.91 ± 1.3 h; half-life [1, 5]: 3.25 ± 0.97 h; AUC [1, 6]: 6890 ± 3980 ng·h/mL; Cmax [1, 6]: 2420 ± 1260 ng/mL; Tmax [1, 6]: 1 ± 0.45 h; bioavailability [1, 6]: 34.9 ± 17.6%; half-life [1, 6]: 2.79 ± 1.23 h; AUC ([1]; po, 560 mg, 560 mg Oral (Fed)): 2710 ± 1510 ng·h/mL; Cmax ([1]; po, 560 mg, 560 mg Oral (Fed)): 560 ± 310 ng/mL; Tmax ([1]; po, 560 mg, 560 mg Oral (Fed)): 2.82 ± 1.15 h; bioavailability ([1]; po, 560 mg, 560 mg Oral (Fed)): 13.8 ± 6.04%; half-life ([1]; po, 560 mg, 560 mg Oral (Fed)): 2.61 ± 0.93 h; effect on G2/M cell cycle transition ([2]; DAPI DNA content): mitotic arrest with subsequent apoptosis; drug concentration of maximal effects on cell cycle signaling molecules ([2]; cyclin B1, p-histone H3(S28), p-Cdk1(Y15)): 0.37 µM; patients still alive at 49 weeks ([3]; 15 patients refractory/relapsing after hypomethylating agents, 3-day infusions 1800 mg/day every other week): 47%; N patients with Progressive Disease [3, 7]: 3; N patients with Stable BM Response [3, 7]: 14; N patients with ≥50% Blast Decrease [3, 7]: 13; Median OS ([3]; 39 pts refractory/relapsing after azacitidine/decitabine, BM response Not Assessed): 11 weeks; Median OS ([3]; 39 pts refractory/relapsing after azacitidine/decitabine, Progressive Disease): 10 weeks; Median OS ([3]; 39 pts refractory/relapsing after azacitidine/decitabine, Stable BM Response): 40 weeks; Median OS ([3]; 39 pts refractory/relapsing after azacitidine/decitabine, ≥50% Blast Decrease): 44 weeks; N patients with Progressive Disease ([3]; 51 RAEB-1, 2, t-pts): 4; N patients with Stable BM Response ([3]; 51 RAEB-1, 2, t-pts): 21; N patients with ≥50% Blast Decrease ([3]; 51 RAEB-1, 2, t-pts): 16; Median OS ([3]; 51 RAEB-1, 2, t-pts, BM response Not Assessed): 11 weeks; Median OS ([3]; 51 RAEB-1, 2, t-pts, Progressive Disease): 13.5 weeks; Median OS ([3]; 51 RAEB-1, 2, t-pts, Stable BM Response): 36 weeks; Median OS ([3]; 51 RAEB-1, 2, t-pts, ≥50% Blast Decrease): 48 weeks; patients with hematological improvements ([3]; 60 MDS patients, CIV): Nine; tolerability of infusions ([3]; CIV infusions, MDS patients): well tolerated without evidence of bone marrow myelotoxicity; median survival ([3]; Intermediate-1 risk MDS patients, previously failed azacitidine or decitabine): about 77 weeks; median survival ([3]; Intermediate-2 risk MDS patients, previously failed azacitidine or decitabine): about 37 weeks; decrease in immature bone marrow cells ([3]; MDS patients who had previously failed azacitidine or decitabine): about 50%; decrease or stabilization in the number of immature bone marrow cells (blasts) ([3]; MDS patients, intravenous infusion, in general): ≥ 50%; Median OS ([3]; RAEB-1, 17 of 60 MDS patients, CIV): 43 weeks; Median OS ([3]; RAEB-2, 21 of 60 MDS patients, CIV): 37 weeks; Median OS ([3]; RAEB-T, 13 of 60 MDS patients, CIV): 20 weeks; Median OS ([3]; RCMD, 9 of 60 MDS patients, CIV): 98 weeks; decrease or stabilization in the number of immature bone marrow cells [3, 8]: ≥ 50%; median survival [3, 8]: about 36 weeks; patients with transient hematologic response with improvement of platelets ([4]; 4 patients): 16%; absolute reduction of peripheral blasts (best response, stabilization of disease) ([4]; after 2 cycles): > 50%; patients with stabilization of disease with >50% absolute reduction of peripheral blasts ([4]; after 2 cycles, 2/25 patients): 8%; patients with peripheral blasts maintained at +/−10% of pretreatment level ([4]; after 2 cycles, 4 patients): 16%; concentration at 6 h ([4]; week 1, 6 hrs after start of infusion): 9.2 ± 5.05 µM; concentration at 6 h ([4]; week 3, 6 hrs after start of infusion): 9.81 ± 6.7 µM; toxicity profile ([4]; main adverse event transient AMS (altered mental status)): acceptable toxicity profile; DLT dose ([4]; over 24 hrs): 2400 mg; MTD ([4]; over 24 hrs for 3 days, CIV): 2400 mg

From patent US10576050B2, “Methods and compositions for treatment of cancer” (ONCONOVA THERAPEUTICS, INC., priority 2012, dated 2020)
